Reference: article PMC11876601 (Molecular Systems Biology, 2025)
Read-outs that look alike come from different tables or passages of the source.

System: p-sites in DNA-damaged AsPC-1 cells
Experiment: decryptM dose-resolved phosphoproteomics of ATRi in GEM-pre-treated cells
Assay type: cell-based, human
Conditions: for EC50: Homo sapiens, ASPC1
Description: Cell culture medium was replaced 24 h after seeding. […] For time point 0, AsPC-1 cells were treated with a vehicle and lysed immediately. The final DMSO concentration in all experiments was 0.2%.
Briefly, cells were washed twice with PBS and lysed in SDS lysis buffer (2% SDS in 40 mM Tris-HCl, pH 7.6), followed by sonication for 10 min (30 s on/30 s off) using a Bioruptor (Diagenode). For DNA hydrolysis, samples were boiled at 95 °C for 10 min and incubated with 2% trifluoroacetic acid (TFA) for 1 min, before the reaction was quenched using 4% N-methylmorpholine. Lysate was cleared by centrifugation at 11,000 × g for 5 min and protein concentration was determined using the Pierce BCA Protein Assay Kit (Thermo Scientific).
Using 70% ethanol, samples were then precipitated on beads, followed by washing thrice with 80% ethanol and once with 100% acetonitrile. Subsequently, proteins were reduced and alkylated using 10 mM TCEP, 50 mM chloroacetamide, and 2 mM CaCl2 in 100 mM EPPS/NaOH, pH 8.5 for 1 h at 37 °C, followed by tryptic digestion at 37 °C for 16 h. Peptides were acidified with 1% TFA and desalted on Chromabond HLB plates (30 µm particle size, 10 mg capacity, Machery-Nagel), using 0.1% TFA for equilibration and sample loading, and 0.1% TFA in 70% acetonitrile for peptide elution. Recovered peptides were freeze-dried by vacuum-centrifugation and stored at −20 °C.
Depending on the experiment, samples were either labeled with TMT-11plex (decryptM), TMT-10plex (non-decryptM, quadruplicates), or TMTpro reagent (time-series; all Thermo Scientific). Therefore, dried peptides were reconstituted in 15 µl 100 mM EPPS, pH 8.5 and each treatment condition was labeled with one channel of the respective TMT reagent (5 µl of 25 µg/µl reagent, Appendix Tables S4–S6). The reaction was incubated for 1 h at 23 °C and subsequently quenched with 0.4% hydroxylamine. Then, samples were pooled, acidified with 1% formic acid, and freeze-dried by vacuum-centrifugation. Labeled peptide pools were desalted on C18 Sep-Pak cartridges (37–55 µm particle size, 50 mg capacity, Waters), using 0.1% formic acid as equilibration solvent, and 0.1% formic acid in 60% acetonitrile was used as elution solvent. Eluted peptides were freeze-dried and stored at −20 °C until further use.
Basic reversed-phase (bRP) fractionation of peptides was performed on a Vanquish HPLC (Thermo Scientific). In short, dried peptides were reconstituted in 200 µl 25 mM ammonium bicarbonate, pH 8.0 and directly injected onto a Waters BEH130 XBridge C18 column (3.5 µm, 4.6 × 250 mm). […] Using an automated fraction collector, 96 fractions were collected between min 7 and 55 after injection. Fractions were acidified with 1% formic acid and pooled to 48 fractions, before they were freeze-dried and stored at −20 °C.
Immobilized metal ion affinity chromatography (IMAC) enrichment of phosphorylated peptides was performed on the Bravo automated liquid handling platform using AssayMAP Fe(III)-NTA cartridges (Agilent). In brief, the 48 dried peptide fractions were reconstituted in 0.1% TFA in 80% acetonitrile and further pooled to 12 fractions (200 µl final volume per well). The phosphopeptide enrichment protocol embedded in the Agilent AssayMAP Bravo Protein Sample Prep Workbench v2.0 software was run. Thereby, the cartridges were first primed with 150 μl 0.1% TFA in acetonitrile at 300 μl/min, and equilibrated with 150 μl 0.1% TFA in 80% acetonitrile at 10 μl/min. Then, pooled fractions were loaded at 5 µl/min and further washed three times with 150 μl 0.1% TFA in 80% acetonitrile at 50 μl/min. Enriched peptides were eluted with 60 μl 1% ammonium hydroxide at 5 μl/min.

## C[C@@H]1COCCN1c1cc(C2([S@](C)(=N)=O)CC2)nc(-c2cc[nH]c3nccc2-3)n1 [Ceralasertib]
AASDHPPT-pS258
  Log2 PTM response (GEM+ATRi vs. GEM): -0.9
BRCA1-pS1239
  Log2 PTM response (GEM+ATRi vs. GEM): -1.1
BRD8-pS621
  Log2 PTM response (GEM+ATRi vs. GEM): -1.7
CDKN2AIP-pS198
  Log2 PTM response (GEM+ATRi vs. GEM): -1.6
CHEK1-pS317
  Log2 PTM response (GEM+ATRi vs. GEM): -2
CHEK1-pS468
  Log2 PTM response (GEM+ATRi vs. GEM): -3.8
DHX9-pS321
  Log2 PTM response (GEM+ATRi vs. GEM): -1.6
EXO1-pS714
  Log2 PTM response (GEM+ATRi vs. GEM): -0.7
FANCD2-pS319
  Log2 PTM response (GEM+ATRi vs. GEM): -1.3
HDGF-pS103
  Log2 PTM response (GEM+ATRi vs. GEM): -1.4
HMGA1-pS9
  Log2 PTM response (GEM+ATRi vs. GEM): -2
HMGA1-pS36;S44
  Log2 PTM response (GEM+ATRi vs. GEM): -1.5
HMGA1-pS44
  Log2 PTM response (GEM+ATRi vs. GEM): -1.7
HSPA4-pS552
  Log2 PTM response (GEM+ATRi vs. GEM): -1.1
HTATSF1-pS481
  Log2 PTM response (GEM+ATRi vs. GEM): -0.6
approximate, from density plot Fig. 4C (peer review file), read-out: EC50 of the majority of pSQ/pTQ sites
  EC50: ~100 nM
approximate, from density plot Fig. 4C (peer review file), read-out: pEC50 of the majority of pSQ/pTQ sites (converted)
  EC50: ~100 nM
p-site dose-response in GEM-pre-treated cells, read-out: EC50, RALY S176
  EC50: 151 nM
p-site dose-response in GEM-pre-treated cells, read-out: pEC50, RALY S176 (converted)
  EC50: 151 nM
read-out: median EC50 across all drug-regulated pSQ/pTQ-sites
  EC50: 154 nM
LRRC42-pS385
  Log2 PTM response (GEM+ATRi vs. GEM): -2.5
NBN-pS397
  Log2 PTM response (GEM+ATRi vs. GEM): -1.2
NBN-pS615
  Log2 PTM response (GEM+ATRi vs. GEM): -0.5
NSUN5-pS432
  Log2 PTM response (GEM+ATRi vs. GEM): -3
PELP1-pS1033
  Log2 PTM response (GEM+ATRi vs. GEM): -1.3
PHF14-pS294
  Log2 PTM response (GEM+ATRi vs. GEM): -1.2
PPM1G-pS201
  Log2 PTM response (GEM+ATRi vs. GEM): -1.9
PPP6R3-pS825
  Log2 PTM response (GEM+ATRi vs. GEM): -1.6
PSMD4-pS266
  Log2 PTM response (GEM+ATRi vs. GEM): -1.3
RAD18-pS368
  Log2 PTM response (GEM+ATRi vs. GEM): -1.2
RIF1-pS1873
  Log2 PTM response (GEM+ATRi vs. GEM): -0.6
SNRPA-pS115
  Log2 PTM response (GEM+ATRi vs. GEM): -1.4
TCEA1-pS100;S97
  Log2 PTM response (GEM+ATRi vs. GEM): -2.1
TCEB3-pS251
  Log2 PTM response (GEM+ATRi vs. GEM): -1.6
THAP4-pS186
  Log2 PTM response (GEM+ATRi vs. GEM): -1.4
TOPBP1-pS1504
  Log2 PTM response (GEM+ATRi vs. GEM): -1.5
TSEN34-pS136
  Log2 PTM response (GEM+ATRi vs. GEM): -1.1
UHRF1-pS393
  Log2 PTM response (GEM+ATRi vs. GEM): -1.4
UIMC1-pS171
  Log2 PTM response (GEM+ATRi vs. GEM): -2.1
ZC3H14-pS135
  Log2 PTM response (GEM+ATRi vs. GEM): -1.3
Classified by CurveCurator
  ATRi Regulation (Curve), RALY S176: down
Source data 4B (p-site not named), 1 µM GEM + ATRi 1 nM
  PTM response (norm. to 1 µM GEM): 1.20
Source data 4B (p-site not named), 1 µM GEM + ATRi 3 nM
  PTM response (norm. to 1 µM GEM): 0.93
Source data 4B (p-site not named), 1 µM GEM + ATRi 30 nM
  PTM response (norm. to 1 µM GEM): 0.96
Source data 4B (p-site not named), 1 µM GEM + ATRi 100 nM
  PTM response (norm. to 1 µM GEM): 0.97
Source data 4B (p-site not named), 1 µM GEM + ATRi 300 nM
  PTM response (norm. to 1 µM GEM): 0.85
Source data 4B (p-site not named), 1 µM GEM + ATRi 1000 nM
  PTM response (norm. to 1 µM GEM): 0.52
Source data 4B (p-site not named), 1 µM GEM + ATRi 3000 nM
  PTM response (norm. to 1 µM GEM): 0.35
Source data 4B (p-site not named), 1 µM GEM + ATRi 10000 nM
  PTM response (norm. to 1 µM GEM): 0.27
Source data 5B (p-site not named), 1 µM GEM + ATRi 3 nM
  PTM response (norm. to 1 µM GEM): 0.78
Source data 5B (p-site not named), 1 µM GEM + ATRi 10 nM
  PTM response (norm. to 1 µM GEM): 0.81
Source data 5B (p-site not named), 1 µM GEM + ATRi 30 nM
  PTM response (norm. to 1 µM GEM): 0.67
Source data 5B (p-site not named), 1 µM GEM + ATRi 100 nM
  PTM response (norm. to 1 µM GEM): 0.51
Source data 5B (p-site not named), 1 µM GEM + ATRi 300 nM
  PTM response (norm. to 1 µM GEM): 0.34
Source data 5B (p-site not named), 1 µM GEM + ATRi 1000 nM
  PTM response (norm. to 1 µM GEM): 0.16
Source data 5B (p-site not named), 1 µM GEM + ATRi 3000 nM
  PTM response (norm. to 1 µM GEM): 0.11
Source data 5B (p-site not named), 1 µM GEM + ATRi 10000 nM
  PTM response (norm. to 1 µM GEM): 0.09
